# Assay results from PMC6513986, “Molecular basis for heat desensitization of TRPV1 ion channels” (Nature Communications, 2019).
# Read-outs that look alike come from different tables or passages of the source.
# Experiments:
# [1] = biological target: platypus TRPV1 (pV1) (Ornithorhynchus anatinus, UniProt F7A7B4); test: Agonist activation, patch clamp, HEK293T; assay type: cell-based; conditions: for EC50_Capsaicin: Supp Table 1 data
# [2] = biological target: Fruit bat TRPV1 (Carollia brevicauda, UniProt G1DJ79); test: Agonist activation, patch clamp, HEK293T; assay type: cell-based; conditions: read-out: EC50_Capsaicin
# Chain of Fruit bat TRPV1 (G1DJ79 1-838): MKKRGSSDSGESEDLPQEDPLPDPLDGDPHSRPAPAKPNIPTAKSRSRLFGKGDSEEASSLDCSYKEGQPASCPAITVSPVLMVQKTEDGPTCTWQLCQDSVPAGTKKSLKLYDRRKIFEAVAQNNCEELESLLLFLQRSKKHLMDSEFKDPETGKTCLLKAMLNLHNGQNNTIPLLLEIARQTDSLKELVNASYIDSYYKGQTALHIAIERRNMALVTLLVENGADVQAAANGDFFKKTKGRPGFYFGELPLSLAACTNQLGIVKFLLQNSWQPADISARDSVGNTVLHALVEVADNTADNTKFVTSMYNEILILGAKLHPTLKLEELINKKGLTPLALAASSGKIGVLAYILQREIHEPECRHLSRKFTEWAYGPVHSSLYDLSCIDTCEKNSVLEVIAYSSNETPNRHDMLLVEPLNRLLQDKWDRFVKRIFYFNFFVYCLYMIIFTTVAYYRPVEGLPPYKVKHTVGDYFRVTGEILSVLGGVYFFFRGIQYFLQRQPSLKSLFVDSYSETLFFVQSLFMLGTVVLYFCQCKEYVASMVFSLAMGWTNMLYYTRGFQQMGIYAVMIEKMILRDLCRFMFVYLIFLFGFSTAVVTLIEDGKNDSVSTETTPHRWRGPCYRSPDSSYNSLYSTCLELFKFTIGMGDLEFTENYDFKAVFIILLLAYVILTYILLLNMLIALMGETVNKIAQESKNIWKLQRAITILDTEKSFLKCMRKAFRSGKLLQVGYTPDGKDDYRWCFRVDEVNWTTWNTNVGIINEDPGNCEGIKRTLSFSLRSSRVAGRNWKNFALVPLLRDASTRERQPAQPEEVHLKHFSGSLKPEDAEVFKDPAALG
# [3] = biological target: Polar bear TRPV1 (Ursus maritimus, UniProt A0A384CG69); test: Agonist activation, patch clamp, HEK293T; assay type: cell-based; conditions: read-out: EC50_Capsaicin
# [4] = biological target: Camel TRPV1 (Camelus ferus, UniProt A0A8B8UHM1); test: Agonist activation, patch clamp, HEK293T; assay type: cell-based; conditions: read-out: EC50_Capsaicin
# [5] = biological target: pV1_mC chimera (Ornithorhynchus anatinus, UniProt F7A7B4); test: Agonist activation, patch clamp, HEK293T; assay type: cell-based, platypus / mouse; conditions: read-out: EC50_Capsaicin
# [6] = biological target: pV1_mNC chimera (Ornithorhynchus anatinus, UniProt F7A7B4); test: Agonist activation, patch clamp, HEK293T; assay type: cell-based, platypus / mouse; conditions: read-out: EC50_Capsaicin
# Chain of pV1_mNC chimera (F7A7B4 436-691, stated change not applied): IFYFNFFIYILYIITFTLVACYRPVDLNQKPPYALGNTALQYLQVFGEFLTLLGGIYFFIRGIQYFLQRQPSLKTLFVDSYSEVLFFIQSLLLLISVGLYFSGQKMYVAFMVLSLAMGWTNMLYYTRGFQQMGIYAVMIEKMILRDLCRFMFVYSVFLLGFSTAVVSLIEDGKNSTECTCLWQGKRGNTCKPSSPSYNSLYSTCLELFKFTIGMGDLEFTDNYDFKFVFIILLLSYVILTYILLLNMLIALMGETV
# Chain of pV1_mNC chimera (Q704Y3 with tags, fused parts or gaps partner): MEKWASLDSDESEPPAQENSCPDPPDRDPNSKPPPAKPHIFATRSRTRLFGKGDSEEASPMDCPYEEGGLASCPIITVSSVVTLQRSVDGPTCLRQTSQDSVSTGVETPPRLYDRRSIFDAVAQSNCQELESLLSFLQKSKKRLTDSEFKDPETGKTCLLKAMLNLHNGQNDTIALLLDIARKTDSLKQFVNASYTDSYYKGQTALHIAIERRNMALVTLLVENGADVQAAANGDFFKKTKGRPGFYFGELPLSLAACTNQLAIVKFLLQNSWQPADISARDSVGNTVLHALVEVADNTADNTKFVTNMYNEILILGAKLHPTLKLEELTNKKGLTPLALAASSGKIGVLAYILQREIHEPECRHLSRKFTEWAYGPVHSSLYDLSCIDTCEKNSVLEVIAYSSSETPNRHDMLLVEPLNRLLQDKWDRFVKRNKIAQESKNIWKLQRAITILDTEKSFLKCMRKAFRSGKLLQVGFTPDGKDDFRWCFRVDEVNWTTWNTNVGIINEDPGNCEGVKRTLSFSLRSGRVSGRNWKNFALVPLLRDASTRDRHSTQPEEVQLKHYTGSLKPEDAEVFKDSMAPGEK
# Chain of pV1_mNC chimera (Q704Y3 with tags, fused parts or gaps partner): as above
# [7] = biological target: mV1 CΔ23 (Ser777-Asp799) (Mus musculus, UniProt Q704Y3, DEL777-799); test: Agonist activation, patch clamp, HEK293T; assay type: cell-based; conditions: read-out: EC50_Capsaicin
# Chain of mV1 CΔ23 (Ser777-Asp799) (Q704Y3 with tags, fused parts or gaps DEL777-799): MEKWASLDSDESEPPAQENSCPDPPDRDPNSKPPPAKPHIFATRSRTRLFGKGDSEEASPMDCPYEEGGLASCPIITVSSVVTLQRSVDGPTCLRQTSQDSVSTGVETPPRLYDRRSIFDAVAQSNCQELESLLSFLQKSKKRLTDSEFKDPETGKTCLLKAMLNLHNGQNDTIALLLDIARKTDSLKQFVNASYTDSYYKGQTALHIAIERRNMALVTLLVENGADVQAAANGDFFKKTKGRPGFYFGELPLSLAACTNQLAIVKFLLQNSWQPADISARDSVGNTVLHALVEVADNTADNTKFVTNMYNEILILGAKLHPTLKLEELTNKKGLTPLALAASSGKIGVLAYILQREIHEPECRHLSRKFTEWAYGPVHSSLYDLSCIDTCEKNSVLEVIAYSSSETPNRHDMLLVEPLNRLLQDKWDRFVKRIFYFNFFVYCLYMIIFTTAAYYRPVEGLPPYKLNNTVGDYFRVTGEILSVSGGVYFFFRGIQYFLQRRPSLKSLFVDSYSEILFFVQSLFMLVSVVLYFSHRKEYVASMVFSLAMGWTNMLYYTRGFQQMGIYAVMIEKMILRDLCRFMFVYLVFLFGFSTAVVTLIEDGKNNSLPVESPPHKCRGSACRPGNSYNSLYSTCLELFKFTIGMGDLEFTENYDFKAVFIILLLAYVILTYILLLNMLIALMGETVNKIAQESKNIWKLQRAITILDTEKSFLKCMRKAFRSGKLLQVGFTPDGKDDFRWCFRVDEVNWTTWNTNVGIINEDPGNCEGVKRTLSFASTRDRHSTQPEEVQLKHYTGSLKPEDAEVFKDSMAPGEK
# [8] = biological target: mV1 CΔ10 (Phe830-Lys839) (Mus musculus, UniProt Q704Y3); test: Agonist activation, patch clamp, HEK293T; assay type: cell-based; conditions: read-out: EC50_Capsaicin
# Chain of mV1 CΔ10 (Phe830-Lys839) (Q704Y3 1-829, stated change not applied): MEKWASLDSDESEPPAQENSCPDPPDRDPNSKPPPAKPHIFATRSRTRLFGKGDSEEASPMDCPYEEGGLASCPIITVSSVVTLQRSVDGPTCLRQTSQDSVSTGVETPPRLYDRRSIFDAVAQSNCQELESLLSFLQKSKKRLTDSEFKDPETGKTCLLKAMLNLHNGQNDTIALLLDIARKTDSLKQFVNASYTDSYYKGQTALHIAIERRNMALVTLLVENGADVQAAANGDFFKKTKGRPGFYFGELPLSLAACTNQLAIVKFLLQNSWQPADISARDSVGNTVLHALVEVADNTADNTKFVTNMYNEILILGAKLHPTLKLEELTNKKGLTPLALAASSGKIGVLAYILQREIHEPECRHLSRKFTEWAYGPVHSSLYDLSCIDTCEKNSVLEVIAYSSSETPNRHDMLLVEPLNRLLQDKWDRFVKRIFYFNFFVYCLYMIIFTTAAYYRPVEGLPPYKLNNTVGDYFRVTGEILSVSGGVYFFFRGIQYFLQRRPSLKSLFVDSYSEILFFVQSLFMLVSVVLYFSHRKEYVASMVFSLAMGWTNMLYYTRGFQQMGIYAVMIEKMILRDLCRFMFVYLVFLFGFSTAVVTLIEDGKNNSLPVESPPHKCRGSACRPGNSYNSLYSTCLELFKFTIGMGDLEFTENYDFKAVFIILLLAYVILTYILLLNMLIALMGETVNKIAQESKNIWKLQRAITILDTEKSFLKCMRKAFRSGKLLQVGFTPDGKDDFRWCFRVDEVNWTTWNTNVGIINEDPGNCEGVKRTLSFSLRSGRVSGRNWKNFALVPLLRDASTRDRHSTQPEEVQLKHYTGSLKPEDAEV
# [9] = biological target: mV1 E838A (Mus musculus, UniProt Q704Y3, E838A); test: Agonist activation, patch clamp, HEK293T; assay type: cell-based; conditions: read-out: EC50_Capsaicin
# Chain of mV1 E838A (Q704Y3 whole entry E838A): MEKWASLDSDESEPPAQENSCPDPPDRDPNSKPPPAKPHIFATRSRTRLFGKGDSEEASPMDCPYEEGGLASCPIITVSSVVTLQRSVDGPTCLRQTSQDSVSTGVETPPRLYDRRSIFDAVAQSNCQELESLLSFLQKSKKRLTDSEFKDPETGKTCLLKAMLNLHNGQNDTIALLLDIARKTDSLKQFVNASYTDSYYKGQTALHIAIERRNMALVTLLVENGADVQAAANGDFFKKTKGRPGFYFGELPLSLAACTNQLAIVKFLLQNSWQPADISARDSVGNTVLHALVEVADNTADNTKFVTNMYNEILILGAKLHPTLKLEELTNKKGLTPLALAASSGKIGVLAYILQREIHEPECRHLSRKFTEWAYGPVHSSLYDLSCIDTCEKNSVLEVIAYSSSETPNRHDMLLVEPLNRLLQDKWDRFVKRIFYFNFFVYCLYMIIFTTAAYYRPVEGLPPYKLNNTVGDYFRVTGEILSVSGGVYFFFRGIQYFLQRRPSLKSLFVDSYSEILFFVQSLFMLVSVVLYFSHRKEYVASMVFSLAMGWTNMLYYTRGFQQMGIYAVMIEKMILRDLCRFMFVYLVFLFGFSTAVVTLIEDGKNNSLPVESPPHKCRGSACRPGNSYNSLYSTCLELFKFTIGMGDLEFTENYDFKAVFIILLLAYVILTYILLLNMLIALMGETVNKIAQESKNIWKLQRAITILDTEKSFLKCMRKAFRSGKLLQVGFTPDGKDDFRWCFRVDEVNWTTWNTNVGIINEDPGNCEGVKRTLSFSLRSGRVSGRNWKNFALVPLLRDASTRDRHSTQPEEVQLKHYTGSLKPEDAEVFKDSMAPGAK
# [10] = biological target: pV1_241 (ANAP) (Ornithorhynchus anatinus, UniProt F7A7B4); test: Agonist activation of ANAP-incorporated channel, patch clamp; assay type: cell-based, platypus
# [11] = biological target: mV1_579 (ANAP) (Mus musculus, UniProt Q704Y3, C579X); test: as above; assay type: cell-based
# [12] = biological target: mV1_648 (ANAP) (Mus musculus, UniProt Q704Y3, L648X); test: as above; assay type: cell-based
# [13] = test system: DRG neurons of p-trpv1 mice; test: Patch clamp of DRG neurons of p-trpv1 mice; assay type: cell-based, mouse; conditions: small diameter DRG neurons, patch clamping
# Method: All recordings were performed at room temperature.
# DRG neurons were acutely dissociated and maintained in a short-term primary culture according to procedures. Briefly, after mice were killed by CO2 inhalation and decapitated, vertebral column was opened by a dorsal approach. DRG neurons were collected using fine forceps from both sides of the spinal column and transferred into DMEM medium (GIBCO), and the spinal nerves were cut off using fine ophthalmological scissors and digested by […] (m/m, Sigma) for 20 min. Following the wash of collagenase and trypsin, DRG neurons were incubated at 37 °C in 5% CO2. Cells were used for electrophysiological experiments within the next 24 h.
# [14] = biological target: mouse TRPV1 (mV1) (Mus musculus, UniProt Q704Y3); conditions: cited from earlier work
# Chain of mouse TRPV1 (mV1) (Q704Y3 whole entry): as the sequence (Q704Y3 whole entry E838A) above, with A838E counted along it
# Method: The heat activation threshold of pV1, at ~35 °C, is slightly higher than the body core temperature of platypus (32 °C)[17],[18] (Fig. 1b, c), again reminiscent of ot ...
# [15] = test system: TRPV1; conditions: cited from earlier work
structure (smiles),measurement,setting,value
"COc1cc(CNC(=O)CCCC/C=C/C(C)C)ccc1O [Capsaicin, capsaicin]",EC50_Capsaicin,[1]; replicate 1,367 nM
same,EC50_Capsaicin,[1]; replicate 2,246 nM
same,EC50_Capsaicin,[1]; replicate 4,271 nM
same,EC50_Capsaicin,[1]; replicate 5,368 nM
same,activation of pV1 by capsaicin,"[1]; whole-cell, 10 μM",currents elicited
same,EC50,"[2]; mean ± s.e.m., n = 6",354 ± 25 nM
same,EC50,[2]; replicate 1,273 nM
same,EC50,[2]; replicate 2,389 nM
same,EC50,[2]; replicate 3,419 nM
same,EC50,[2]; replicate 4,415 nM
same,EC50,[2]; replicate 5,274 nM
same,EC50,[2]; replicate 6,354 nM
same,EC50,"[3]; mean ± s.e.m., n = 3",313 nM
same,EC50,[3]; replicate 1,262 nM
same,EC50,[3]; replicate 2,336 nM
same,EC50,[3]; replicate 3,341 nM
same,EC50,"[4]; mean ± s.e.m., n = 5",540 nM
same,EC50,[4]; replicate 1,445 nM
same,EC50,[4]; replicate 2,443 nM
same,EC50,[4]; replicate 3,562 nM
same,EC50,[4]; replicate 4,619 nM
same,EC50,[4]; replicate 5,631 nM
same,EC50,"[5]; mean ± s.e.m., n = 6",310 nM
same,EC50,[5]; replicate 3,388 nM
same,EC50,[5]; replicate 4,257 nM
same,EC50,[5]; replicate 5,354 nM
same,EC50,[5]; replicate 6,300 nM
same,EC50,"[6]; mean ± s.e.m., n = 6",306 nM
same,EC50,[6]; replicate 3,300 nM
same,EC50,[6]; replicate 4,276 nM
same,EC50,"[7]; mean ± s.e.m., n = 3",398 nM
same,EC50,[7]; replicate 1,320 nM
same,EC50,[7]; replicate 2,353 nM
same,EC50,[7]; replicate 3,521 nM
same,EC50,"[8]; mean ± s.e.m., n = 6",354 nM
same,EC50,[8]; replicate 1,215 nM
same,EC50,[8]; replicate 3,313 nM
same,EC50,[8]; replicate 4,407 nM
same,EC50,[8]; replicate 5,457 nM
same,EC50,[8]; replicate 6,463 nM
same,EC50,"[9]; mean ± s.e.m., n = 3",565 nM
same,EC50,[9]; replicate 1,660 nM
same,EC50,[9]; replicate 2,597 nM
same,EC50,[9]; replicate 3,438 nM
same,EC50_Capsaicin,[10]; replicate 3,288 nM
same,EC50_Capsaicin,[10]; replicate 5,322 nM
same,EC50_Capsaicin,[10]; replicate 6,342 nM
same,EC50,[11],293 nM
same,EC50_Capsaicin,[11]; replicate 2,297 nM
same,EC50,[12],296 nM
same,EC50_Capsaicin,[12]; replicate 1,301 nM
same,EC50_Capsaicin,[12]; replicate 2,286 nM
same,EC50_Capsaicin,[12]; replicate 3,312 nM
same,EC50_Capsaicin,[12]; replicate 5,289 nM
same,response to capsaicin,[13],well maintained
same,capsaicin sensitivity of heat-desensitized channels,[14],less sensitive
same,effect of capsaicin administration,[15],a burning sensation and acute drop in body core temperature (hypothermia)
